This is an account of results in ChEMBL document CHEMBL4004795, “Polycycloiridals with a Cyclopentane Ring from Iris tectorum” (J Nat Prod, 2017).

Each structure is given as a SMILES string. Some results are limits rather than exact numbers.

The first experiment concerns BV-2. The experiment is described as follows: Inhibition of LPS-induced nitric oxide production in mouse BV2 cells pretreated for 24 hrs followed by LPS-stimulation after 24 hrs by Griess assay. The class given is functional, cell-based. In general terms: Griess reagent forms a coloured azo dye with nitrite.
For the molecule `C/C(C=O)=C1\CC[C@](C)(O)[C@]23C[C@H](/C=C(C)/C=C/[C@@H]4[C@@H](C(C)(C)O)CC[C@@]4(C)O)O[C@H]2OCCC[C@H]13`, the IC50 is over 10 µM.

`CC(C)=CCC/C(C)=C\[C@H]1C=C(CO)[C@@H]2CC[C@]3([C@H](CCCO)/C(=C(/C)C=O)CC[C@]3(C)O)[C@@H]2O1`: the IC50 is 0.54 µM.

Regarding `C=C(C)[C@H]1CC[C@@](C)(O)[C@@H]1/C=C/C(C)=C/[C@H]1C[C@@]23[C@H](OCCC[C@@H]2/C(=C(/C)C=O)CC[C@]3(C)O)O1`, the IC50 was over 10 µM.

Take `C=C(C)[C@H]1CC[C@@](C)(O)[C@@H]1/C=C/C(C)=C/[C@H]1C[C@@]23[C@H](OCCC[C@@H]2/C(=C(\C)C=O)CC[C@]3(C)O)O1`: the IC50 is over 10 µM.

For the molecule `C=C(C)[C@@H]1CC[C@](C)(O)[C@H]1/C=C/C(C)=C/[C@H]1C[C@@]23[C@H](OCCC[C@@H]2/C(=C(/C)C=O)CC[C@]3(C)O)O1`, the IC50 was over 10 µM.

As to `CC(/C=C/[C@@H]1[C@@H](C(C)(C)O)CC[C@@]1(C)O)=C\[C@H]1C[C@@]23[C@H](OCCC[C@@H]2/C(=C(\C)C=O)CC[C@]3(C)O)O1`, the IC50 was over 10 µM.

As to `CC(/C=C/[C@H]1[C@H](C(C)(C)O)CC[C@]1(C)O)=C\[C@H]1C[C@@]23[C@H](OCCC[C@@H]2/C(=C(\C)C=O)CC[C@]3(C)O)O1`, the IC50 is over 10 µM.

As for `COc1cc(/C=C/C(=O)CC(=O)/C=C/c2ccc(O)c(OC)c2)ccc1O` [CURCUMIN], the IC50 was 2.36 µM.

Another experiment concerns BV-2. The experiment is described as follows: Potency index, ratio of curcumin IC50 to compound IC50 for inhibition of LPS-induced nitric oxide production in mouse BV2 cells. The class given is functional.
For `CC(C)=CCC/C(C)=C\[C@H]1C=C(CO)[C@@H]2CC[C@]3([C@H](CCCO)/C(=C(/C)C=O)CC[C@]3(C)O)[C@@H]2O1`, the “Ratio IC50” value was determined as 3.

In general, IC50 refers to the midpoint of a concentration-inhibition curve.
